Measurements from patent publication US20170035863A1 (UNIVERSITY OF LEEDS, priority 2014, published 2017).

What was measured:
[1] = test system: human normal pool platelet poor plasma; assay: Activated Partial Thromboplastin Time (aPTT) clotting assay; type: biochemical; details: for Mean aPTT: platelet poor plasma, mean ± SEM
Protocol: The activated Partial Thromboplastin Time (aPTT) employed was the PTT Automate 5 reagent kit from Stago. The coagulometer (Start 4, Diagnostica Stago, Asnieres sur Seine Cedex, France) was preheated to 37° C. prior to starting any measurements. A sample of human normal pool platelet poor plasma (n=22) was defrosted at 37° C. from −80° C. […] Then 48.5 μL of PTT automate was added to the cuvette and left to incubate for 180 seconds at 37° C. in the coagulometer, after which 50 μL of 25 mM calcium chloride was immediately added to initiate clotting. At the end of the test, the time clotting times were recorded.
This method is known to the person skilled in the art.

thrombin = thrombin (Homo sapiens, UniProt P00734); assay: Thrombin activity, chromogenic substrate S-2238 (IC50); type: biochemical
Protocol: Thrombin activity was measured using a chromogenic substrate S-2238 (Quadratec). […] Kinetic readings at 405 nm were monitored every 12 seconds for a total duration of 3 hours at 37° C. Gradients of initial rates were determined and employed to calculate IC50 values using Grafit software.

[2] = test system: murine tail bleeding model; assay: Murine tail bleeding time; type: in vivo, C57BL/6 male mice
Text: (§1) The same animals employed for anticoagulant efficacy were subjected to tail bleeding immediately following the end of the efficacy experiments. Tails were cut with a scalpel at 2 mm diameter using a home-made device for measuring tail diameter. The tails were immediately suspended into lml warmed saline and the time taken to cessation of bleeding monitored (panel A). The collected saline/blood mix at the end of the experiments were frozen and subjected to haemoglobin determination (panel B).
as §1, with “1 ml” for “lml”, “monitored.” for “monitored (panel A). The collected saline/blood mix at the end of the experiments were frozen and subjected to haemoglobin determination (panel B).”

Row | Molecule | Mean aPTT ([1]; 0.11 nM, 3 min incubation) | Mean aPTT ([1]; 0.44 nM) | Mean aPTT ([1]; 0.88 nM) | Mean aPTT ([1]; 1.75 nM) | Mean aPTT ([1]; 3.50 nM) | Mean aPTT ([1]; 7.00 nM) | Mean aPTT ([1]; 14.00 nM) | Mean aPTT ([1]; 28.00 nM) | Mean aPTT ([1]; 56.00 nM) | Mean aPTT ([1]; 112.00 nM) | Mean aPTT ([1]; 224.00 nM) | Mean aPTT ([1]; 448.00 nM) | IC50 (thrombin) | potency in aPTT, comparison ([1]; in plasma) | prolongation of bleeding time ([2]; 20 mg/kg, at the end of the experiment) | risk of bleeding ([2]; at doses achieving 50% inhibition of fibrin clot formation) | prolongation of bleeding time ([2]; at the dose required to achieve at least 50% inhibition of fibrin clot formation)
1 | bivalirudin [reference compound] | 32.03 ± 0.35 s | 31.07 ± 0.09 s | 31.20 ± 0.06 s | 31.47 ± 0.37 s | 32.43 ± 0.13 s | 36.30 ± 0.20 s | 40.27 ± 0.60 s | 46.13 ± 1.25 s | 53.97 ± 0.26 s | 63.43 ± 2.32 s | 79.50 ± 0.75 s | 89.77 ± 3.99 s |  |  |  |  | 
2 | CC[C@H](C)[C@H](NC(=O)[C@H](C)NC(=O)[C@H](CCC(=O)O)NC(=O)[C@H](Cc1ccccc1)NC(=O)[C@H](CC(=O)O)NC(=O)[C@H](Cc1ccccc1)NC(=O)[C@@H]1CCCN1C(=O)[C@@H]1CCCN1C(=O)[C@H](C)NC(=O)[C@@H](NC(=O)[C@H](CCCCN)NC(=O)[C@H](Cc1c[nH]cn1)NC(=O)[C@H](CCSC)NC(=O)[C@H](CCCNC(=N)N)NC(=O)[C@@H]1CCCN1C(=O)[C@H](CCC(=O)O)NC(=O)[C@H](C)NC(=O)[C@@H](NC(=O)[C@@H](N)CC(=O)O)C(C)C)[C@@H](C)O)C(=O)N1CCC[C@H]1C(=O)N[C@@H](CCC(=O)O)C(=O)N[C@@H](CCC(=O)O)C(=O)N[C@@H](Cc1ccc(O)cc1)C(=O)N[C@@H](Cc1ccc(OS(=O)(=O)O)cc1)C(=O)N[C@@H](CC(C)C)C(=O)O [SYM-3491-SO3] | 32.03 ± 0.07 s | 32.07 ± 0.03 s | 31.83 ± 0.03 s | 32.20 ± 0.15 s | 32.33 ± 0.07 s | 33.27 ± 0.27 s | 35.33 ± 0.33 s | 38.23 ± 0.48 s | 44.17 ± 0.43 s | 49.87 ± 0.20 s | 60.33 ± 0.17 s | 70.97 ± 0.69 s | 172 ± 6.5 nM | slightly less than variegin | ~2 fold | increases risk of bleeding | ~2 fold
